Here are results for one molecule from article PMC12606464, “Investigating NFE2L1 activators for targeted protein aggregate clearance: a follow-up study” (RSC Medicinal Chemistry, 2025).

The assay deals with NFE2L1 pathway. Put plainly: 3×PSMA4-ARE-LUC reporter with or without N-acetyl-L-cysteine (NAC). It is filed as cell-based, human. As to conditions: HEK293, 5 μM, 16 h. An excerpt: We next examined whether the selected RUN compounds activate the NFE2L1 pathway in a stress-independent manner, while preserving normal ubiquitin-dependent proteasomal degradation. This distinction is crucial, as the therapeutic benefit of NFE2L1 activation lies in its ability to alleviate proteotoxic stress and target disease-related proteins for degradation without compromising normal proteostasis. To assess this, U2OS cells stably expressing the short-lived fluorescent reporter Ub-G76V-GFP were treated with various concentrations of RUN compounds. […] We also examined whether compound-induced activation of NFE2L1 could be attributed to the generation of reactive oxygen species (ROS). To test this, the 3×PSMA4-ARE-LUC reporter assay was performed in the presence or absence of the antioxidant N-acetyl-L-cysteine (NAC). A decrease in reporter activity upon NAC treatment would indicate pathway activation through oxidative stress. […]
To determine whether RUN compounds activate the NFE2L1 pathway via reactive oxygen species (ROS) generation or through Keap1-NRF2 pathway crosstalk, we used the 3xPSMA4-ARE-LUC dual reporter assay in HEK293 cells. […] A reduction in luminescence signal upon NAC co-treatment would indicate that the compound activates the reporter via ROS-mediated mechanism or Keap1-NRF2-dependent oxidative/electrophilic stress. […]

As to `COc1ccc(/C=C2\CC(NC(=O)c3ccccn3)C/C(=C\c3ccc(OC)c(OC)c3)C2=O)cc1OC` (stereo not shown) [RUN-94], the “NFE2L1 reporter activation in the presence of NAC” value is given as “retained its activity”.
